Data: patent US20190369122A1, “METABOLIC DISORDERS” (priority 2016, published 2019)

What was measured:
p38α/p38β = settings: cited from earlier work
p38γ/p38δ = settings: cited from earlier work
HEK293 cells = assay: Signaling in HEK293 cells (immunoblot); format: cell-based, human; settings: for inhibition of imidazole propionate-induced phosphorylation of p62 and S6K1: 10 μM, 30 min pretreatment, ImP 100 μM 1 h
Description: (§1) Snap-frozen liver and harvested cells were lysed in buffer containing 50 mM Tris-HCl (pH 7.4), 150 mM NaCl, 1 mM EDTA, 1 mM Na3VO4, 20 mM NaF, 10 mM glycerophosphate, 1 mM PMSF, 10% glycerol, 1% Triton X-100 and protease inhibitor cocktail. For immunoprecipitation, the cell lysates were obtained in 0.3% CHAPS-containing lysis buffer, sonicated and centrifuged at 20,000 g for 15 min at 4° C., and the supernatant was incubated with 20 μl of anti-FLAG beads (Sigma) at 4° C. for 4 h under gentle agitation.
HEK293 cells (ATCC CRL-1573) were grown and maintained in high-glucose (4.5 g/l glucose) DMEM with 10% (v/v) FBS. […] 24 h after transfection (with plasmids or siRNA as indicated), HEK293 cells cultured in poly-L-lysine-coated 60 mm dishes were rinsed twice with DMEM without FBS and incubated in serum-free DMEM for 18 h. HEK293 cells were then washed once with EBSS and incubated in EBSS for 1 h.

primary hepatocytes = assay: Insulin signaling in primary hepatocytes (immunoblot); format: cell-based, mouse; settings: rapamycin 20 nM, Torin 1 50 nM, ImP 100 μM
Description: as §1
Primary hepatocytes were isolated from C57BL/6J mice by digesting liver with perfusion of collagenase type IV as described previously. After perfusion, 16×10^5 cells were plated on collagen-coated 60 mm dishes in Dulbecco's modified Eagle's medium (DMEM)/F12 supplemented with fetal bovine serum (FBS), penicillin/streptomycin and 100 nM dexamethasone. After 4 h, the medium was changed to DMEM/F12 containing penicillin/streptomycin.

[1] = biological target: recombinant p62 (Abcam, ab95320), Q13501

## Cc1ccc(-n2nc(C(C)(C)C)cc2NC(=O)Nc2ccc(OCCN3CCOCC3)c3ccccc23)cc1 [BIRB796, 1-(5-tert-butyl-2-p-tolyl-2H-pyrazol-3-yl)-3-[4-(2-morpholin-4-yl-ethoxy)naphthalen-1-yl]urea]
p38α/p38β
  inhibition of p38α/p38β: inhibits the entire p38 subfamily
p38γ/p38δ
  inhibition of p38γ/p38δ: inhibits the entire p38 subfamily
HEK293 cells; amino acid-deprived HEK293
  inhibition of imidazole propionate-induced phosphorylation of p62 and S6K1: inhibited

## N[C@@H](Cc1c[nH]cn1)C(=O)O [histidine, reference compound]
HEK293 cells; amino acid-deprived HEK293, 100 μM for 1 h
  phosphorylation of p62 or S6K1: neither

## CC(C)C[C@H](N)C(=O)O [Leucine, reference compound]
HEK293 cells; HEK293, after only 15 min, transient
  S6K1 phosphorylation: increased
HEK293 cells; absence of amino acids
  time to mTORC1 activation: ≤ 15 min

## insulin: insulin from Sigma-Aldrich, used at 5 nM
HEK293 cells; HEK293, insulin 5 nM, absence of amino acids or imidazole propionate
  mTORC1 activation, as measured by S6K1 phosphorylation: did not lead to mTORC1 activation

## CCC(=O)N1CCN(c2ccc(-n3c(=O)ccc4cnc5ccc(-c6cnc7ccccc7c6)cc5c43)cc2C(F)(F)F)CC1 [torin 1, 1-[4-[4-(1-oxopropyl)-1-piperazinyl]-3-(trifluoromethyl)phenyl]-9-(3-quinolinyl)-benzo[h]-1,6-naphthyridin-2(1H)-one, reference compound]
Primary hepatocytes
  effect on imidazole propionate-induced S6K1 phosphorylation: reversed
  inhibition of imidazole propionate-induced reduction of IRS: inhibited

## NC1(c2ccc(-c3nc4ccn5c(=O)[nH]nc5c4cc3-c3ccccc3)cc2)CCC1 [MK2206, reference compound]
HEK293 cells
  effect on imidazole propionate-induced Akt activation: efficiently blocked
HEK293 cells; absence of amino acids
  effect on imidazole propionate-induced S6K1 phosphorylation: did not affect
HEK293 cells; presence of amino acids
  effect on imidazole propionate-induced S6K1 phosphorylation: inhibition

## Oc1ccc(-c2nc(-c3ccncc3)c(-c3ccc(F)cc3)[nH]2)cc1 [SB202190]
p38α/p38β
  inhibition of p38α/p38β: inhibited
HEK293 cells; amino acid-deprived HEK293
  inhibition of imidazole propionate-induced phosphorylation of p62 and S6K1: not

B1: recombinant p38γ (Abcam, ab125651) (protein)
chain: MSSPPPARSGFYRQEVTKTAWEVRAVYRDLQPVGSGAYGAVCSAVDGRTGAKVAIKKLYRPFQSELFAKRAYRELRLLKHMRHENVIGLLDVFTPDETLDDFTDFYLVMPFMGTDLGKLMKHEKLGEDRIQFLVYQMLKGLRYIHAAGIIHRDLKPGNLAVNEDCELKILDFGLARQADSEMTGYVVTRWYRAPEVILNWMRYTQTVDIWSVGCIMAEMITGKTLFKGSDHLDQLKEIMKVTGTPPAEFVQRLQSDEAKNYMKGLPELEKKDFASILTNASPLAVNLLEKMLVLDAEQRVTAGEALAHPYFESLHDTEDEPQVQKYDDSFDDVDRTLDEWKRVTYKEVLSFKPPRQLGARVSKETPL
[1]
  p62 phosphorylation (T269 and S272), in vitro kinase assay: p62 phosphorylation, at T269 and S272, was induced by p38γ in the presence of 50 µM ATP, which was further increased with 200 µM ATP
